Entries after “also recorded” stand apart in the source; their conditions may differ. Like-named read-outs stand apart in the source and are kept apart here.
How the values were obtained:
M21 cells [1] = format: cell-based; details: normal donor serum, FIG. 9
Experimental: The requisite amount of chloroform solution containing each lipid compound was measured into a glass vial. Chloroform was removed by blowing argon into the vial until all solvent was evaporated leaving a lipid film on the glass. The lipid film was hydrated with sufficient buffer (HBSS with 1% BSA) to yield a 0.1 mM solution for 30 minutes at room temperature. The vials were then sonicated in a water bath sonicator to cause the lipids to sheet off of the glass. It is believed that the lipids form vesicle structures in the buffer.
M21 cells were plated in a 12-well plate and allowed to grow over night. The next morning, the growth medium was removed and replaced with 0.5 mL of buffer (control) or lipid suspension. Cells were incubated in contact with lipids for 1 hour at 37° C. to allow for lipid insertion. The lipid suspension was then aspirated and cells were striped from the plate with 1 mM EDTA in PBS pH 7.4. The EDTA/cell suspensions were diluted ˜1:1 with HBSS/BSA buffer, spun down and resuspended at 500,000 cells mL^−1. Cell samples where CD55 and CD59 were to remain functional were diluted 1:1 in HBSS/BSA buffer. Cell samples in which complement inhibitory factors were to be blocked were diluted 1:1 with HBSS/BSA containing 20 μg/mL of each blocking antibody (anti-CD55: clone 143-30 from Southern Biotech, anti-CD59: clone MEM-43 from Novus Biologicals) for a final concentration of 10 μg/mL of each antibody.
Cell suspensions (50 μL) were added to an opaque white 96-well plate in sextuplicate. […] (See plate illustration FIG. 7.) The plate was incubated at 37° C. for two hours to allow for complement activation and cell killing. After 2 hours, the plate was removed from the incubator and allowed to come to room temperature. […] Luminescence was read on a Tecan M1000 plate reader.
Luminescence values were averaged for each set of triplicate wells. Since luminescence correlates to viable cells and the heat killed serum wells provide a measure of non-specific cell death, the fraction of viable cells for each condition is calculated as (avg. luminescencenormal serum)/(avg. luminescenceheat killed serum). […]
FIG. 9 is a graph presenting results in terms of % viable cells for an experiment conducted with M21 cells as noted above which compared treatment of cells with lipid alone serum alone (negative control) (DPoPE), lipid+addition of CD55 and CD59 blocking antibodies, Rha2-lipid 51, Rha2-lipid 51+CD55 and CD59 blocking antibodies, 14.18-IL2 antibody (positive control), and 14.18-IL@antibody+CD55 and CD59 blocking antibodies. […] Cell Titer-Glo® assay (Promega) was used to measure living cells, Viability=(luminescence in wells treated with normal serum)/(luminescence of wells treated with heat inactivated serum).

[2] = system: antibodies in human serum; assay: Stability of antigen-antibody complexes in serum, SPR loss of response units over 1 hour; format: binding; details: over one hour, corrected RU
Experimental: FIG. 3 also includes a Table showing percentage loss calculated as (RUT2)/RuT1. All RU were corrected by reference subtraction.
The relative stability of antigen-antibody complexes for DNP, αGal and Rha in serum was assessed by evaluating RU (corrected RU) as a function of time (over 1 hour). FIG. 3 illustrates the decay of RU with time for antigen-antibody complexes for the three antigens. Due to the complexity of these systems, exact kinetic parameters could not be determined; however the loss of response units over time provides an estimate rank ordering of dissociation rates and complex longevity.

M21 cells [3] = assay: Chromium-51 release assay (CDC / ADCC); format: cell-based
Experimental: Experiments were performed using the art-recognized Chromium-51 (^51Cr) release assay to assess if Rha2-lipid conjugate 51 was capable of activating cellular responses ADCC.
M21 cells were treated with lipid as described in Example 6. Target cells are labeled with ^51Cr and the release of label is a measure of cell cytolysis. In this case, the cells were contacted with Na^51Cr label overnight which is somewhat longer than is typically employed in the assay.
This confirms results from Example 6 that Rha2-DPoPE was able to mediate CDC. Peripheral blood mononuclear cells (PBMCs) include immune effector cells some of which express CD16, the most important class of which is natural killer cells.

complement component C4d = assay: Activation of complement, deposition of complement component C4d on treated M21 cells, flow cytometry; format: cell-based; details: 25% normal human serum, 1 hour at 37° C.
Experimental: FIG. 6 is a graph showing the results of flow cytometry measurements of M21 cells treated with the indicated rhamnose-lipid conjugates, or with an antibody known to activate complement (14.18) exposed to normal human serum and subsequently stained for C4d, a marker of complement activation.
Rhamnose-lipid conjugates 4 (Rha1-DPoPE) and 51 (Rha2-DPoPE) were synthesized as described in Example 1. The ability of these compounds to activate complement was tested by looking for deposition of complement component C4d. M21 cells treated with buffer, rha1-DPoPE, rha2-DPoPE, or a control antibody known to activate complement (14.18) were exposed to 25% normal human serum for 1 hour at 37° C., washed and stained for C4d, and analyzed by flow cytometry. […] The 14.18 antibody employed was the Ch14.18-IL2 fusion protein [Gillies, S D; Lan, Y; Lo, K M; Super, M; Wesolowski, J (1999) “Improving the efficacy of antibody-interleukin 2 fusion proteins by reducing their interaction with Fc receptors.” Cancer Research vol. 59 (9) p. 2159-66.]

M21 cells [4] = assay: DNP-lipid insertion into cell membranes, anti-DNP staining, flow cytometry; format: cell-based; details: M21 cells treated with DNP-lipid, stained with anti-DNP
From the text: FIG. 4 is a graph showing the results of flow cytometry measurement of M21 cells treated with or without DNP-lipid and stained with anti-DNP. DNP-lipid 100 (Avanti Polar Lipids, Alabaster, Ala.) was used for the experiment.
As an initial assessment of antigen-lipid insertion into cell membranes, a hapten-lipid conjugate, DNP-lipid (100, a dipalmitoleoyl phosphatidylethanolamine-DNP conjugate) and anti-DNP-antibody were used to determine if (1) lipids would insert into model M21 cell line and (2) if the antigen headgroups of the antigen-lipid conjugates would remain accessible to antibodies. M21 cells treated with the DNP-lipid followed by staining with anti-DNP were analyzed by flow cytometry (FIG. 4).

[5] = system: antibodies in human serum; assay: Biosensor (SPR) analysis of antibody levels in human serum against immobilized biotinylated antigens; format: binding; details: 10% serum, after 5 minutes of serum exposure, biotinylated antigen on streptavidin chip
From the text: Biosensor analysis was used to evaluate levels of antibodies in human serum. Surface plasmon resonance (SPR) is an information-rich technique requiring only small amounts of material, and surfaces with immobilized compounds can be regenerated and used multiple times. Although this technique is most often associated with determination of kinetic parameters, it is also useful for rank ordering interactions with ligands and antibody characterization, and is compatible with serum. […] The biotinylated antigens were immobilized on streptavidin-coated sensor chips along with a biotinylated control peptide in a reference channel. Serum was collected from healthy volunteer donors under IRB-approved Human Subjects minimal risk protocol M-2005-1282 at the University of Wisconsin-Madison. To limit bulk refractive index changes and keep signal within the instrument's detection range, solutions of 10% serum were flowed across the chip, contacting antigens in this order: […] As a measure of antibody prevalence, corrected response units (RUantigen-RUreference) bound to each flow channel were compared after 5 minutes of serum exposure; more RU indicated greater antibody binding and therefore, a higher titer. […] Antibodies to rhamnose were further assessed with ELISA assays using immobilized rhamnose-BSA.

M21 cells [6] = assay: Fluorescent lipid insertion levels, quantitative flow cytometry with calibration beads; format: cell-based
From the text: FIG. 5 is a graph showing the results of flow cytometry measurements to assess the levels of insertion of fluorescent lipid conjugates into M21 cells. See Example 4 and Scheme 6 for details. Under the treatment conditions used, insertion levels of approximately 3×10^6 lipids per cell was achieved. All three fluorescent labeled lipids inserted robustly into the cell membrane.
To estimate lipid insertion levels into model cells, three fluorescent lipid derivatives were synthesized: 101 an Alexa-Fluor® 488 dye conjugated to cholesterol, 102 Alexa-Fluor® 488 dye (Life Technologies) conjugated to POPE and 103 an Alexa-Fluor® 488 dye conjugated to DPoPE. M21 cells were treated with these lipids and assessed by quantitative flow cytometry using calibration beads to determine the number of fluorophores per cell. The results are illustrated in FIG. 5.

[7] = plus CD55 and CD59 blocking antibodies 10 μg/mL each

Question: Which results are given for `CCCCCC/C=C\CCCCCCCC(=O)OC[C@H](COP(=O)(O)OCCN)OC(=O)CCCCCCC/C=C\CCCCCC` [DPoPE, 1,2-dipalmitoleoyl-sn-glycero-3-phosphoethanolamine]?
Answer: % viability (M21 cells [1]; CD55 and CD59 functional): remain equally viable; % viability (M21 cells [1]; [7]): slight negative impact on cell survival

Question: `OC[C@H]1O[C@H](O[C@H]2[C@@H](O)[C@@H](CO)OC(O)[C@@H]2O)[C@H](O)[C@@H](O)[C@H]1O` (stereo partly drawn) [αGal, Gal-α-1,3-Gal] was tested. Which “loss of binding signal (response units) of antigen-antibody complex over time” value (from here on “loss of binding signal … over time”) [2] did it give?
Answer: Its value is “signal loss was greater”.

Question: With `CCCCCC/C=C\CCCCCCCC(=O)OC[C@H](COP(=O)(O)OCCN(CCCCO[C@@H]1OC(C)[C@H](O)[C@H](O)C1O)CCCCO[C@@H]1OC(C)[C@H](O)[C@H](O)C1O)OC(=O)CCCCCCC/C=C\CCCCCC` (some centres unmarked) [Compound 51, Rha2-DPoPE] as the compound, how does the “51Cr release (cytotoxicity, CDC)” value (M21 cells [3]; serum alone, FIG. 10 left bar) read?
Answer: Its value is “Cr-51 was released”.

Question: And the “51Cr release (cytotoxicity)” value (M21 cells [3]; serum with PBMCs added, FIG. 10 right bar)?
Answer: Its value is “cytotoxicity increased”.

Question: And the “complement activation (C4d staining)” value (complement component C4d)?
Answer: Its value is “more efficient”.

Question: What about the “% viability” value (M21 cells [1]; CD55 and CD59 functional) of the same compound?
Answer: Its value is “large decrease in viability”.

Question: What about the “% viability” value (M21 cells [1]; [7]) of the same compound?
Answer: The value was “significantly amplified”.

Question: Which “loss of binding signal … over time” value [2] does the source give for `O=[N+]([O-])c1ccc(O)c([N+](=O)[O-])c1` [DNP, 2,4-dinitrophenol] here?
Answer: Its value is “signal loss was greater”.

Question: `CCCCCC/C=C\CCCCCCCC(=O)OC[C@H](COP(=O)(O)OCCNCCCCO[C@@H]1OC(C)[C@H](O)[C@H](O)C1O)OC(=O)CCCCCCC/C=C\CCCCCC` (some centres unmarked) [Compound 4, Rha1-DPoPE] was tested. Which “complement activation (C4d staining)” value (complement component C4d) did it give?
Answer: The value was “activated complement”.

Question: How did the “anti-DNP staining shift (membrane insertion, antigen head group accessibility)” value (M21 cells [4]) turn out when `CCCCCCCCCCCCCCCC(=O)OC[C@H](COP(=O)(O)OCCNC(=O)CCCCCNc1ccc([N+](=O)[O-])cc1[N+](=O)[O-])OC(=O)CCCCCCCCCCCCCCC.N` [DNP-lipid] was run?
Answer: Its value is “positive shift”.

Question: Which “loss of binding signal … over time” value [2] does the source give for rhamnose here?
Answer: The value was “affinity advantage over those of both αGal and DNP”.

Question: And the “antibody prevalence (corrected response units bound, RUantigen-RUreference)” value [5]?
Answer: The value was “more prevalent than those recognizing αGal in all cases; also recorded: equivalent or better to those recognizing DNP in most cases”.

Question: For `CC(C)CCC[C@@H](C)[C@H]1CC[C@H]2[C@@H]3CC=C4C[C@H](OC(=O)NCCOCCOCCNC(=O)c5cccc(-c6c7ccc(=N)c(S(=O)(=O)O)c-7oc7c(S(=O)(=O)O)c(N)ccc67)c5C(=O)O)CC[C@]4(C)[C@H]3CC[C@]12C` [Compound 101], which “insertion into cell membranes, copy numbers (fluorophores per cell)” value (M21 cells [6]) is on record?
Answer: The value was “around 3×10^6”.

Source: US9861702B2, “Lipid-conjugated rhamnose for immune system recruitment and oncotherapy” (WISCONSIN ALUMNI RESEARCH FOUNDATION, priority 2012, dated 2018)
